The target of assay [1] is T1, NLRP3 (Homo sapiens, UniProt Q96P20). In words: THP-1 cells pyroptosis assay (LPS + nigericin, resazurin readout). Format: cell-based. Also on record: Seed THP-1 cells (25,000 cells/well) containing 1.0 μg/ml LPS in 40 μl of RPMI medium; host or cells: THP-1 cells. The conditions noted are these: NLRP3 inhibitory activity, 1.0 μg/ml LPS, 5 μM nigericin. On the procedure:
THP-1 cells (ATCC #TIB-202) were grown in RPMI containing L-glutamine (Gibco #11835) supplemented with 1 mM sodium pyruvate (Sigma #S8636) and penicillin (100 units/ml)/streptomycin (0.1 mg/ml) (Sigma #P4333) in 10% Fetal Bovine Serum (FBS) (Sigma #F0804). The cells were routinely passaged and grown to confluency (˜10^6 cells/ml). On the day of the experiment, THP-1 cells were harvested and resuspended into RPMI medium (without FBS). The cells were then counted and viability (>90%) checked by Trypan blue (Sigma #T8154). Appropriate dilutions were made to give a concentration of 625,000 cells/ml. To this diluted cell solution was added LPS (Sigma #L4524) to give a […] Final Assay Concentration (FAC). 40 μl of the final preparation was aliquoted into each well of a 96-well plate. The plate thus prepared was used for compound screening.
The following method step-by-step assay was followed for compound screening. • 1. Seed THP-1 cells (25,000 cells/well) containing 1.0 μg/ml LPS in 40 μl of RPMI medium (without FBS) in 96-well, black walled, clear bottom cell culture plates coated with poly-D-lysine (VWR #734-0317) • 2. Add 5 μl compound (8 points half-log dilution, with 10 μM top dose) or vehicle (DMSO 0.1% FAC) to the appropriate wells • 3. Incubate for 3 hrs at 37° C. in 5% CO2 • 4. Add 5 μl nigericin (Sigma #N7143) (FAC 5 μM) to all wells • 5. Incubate for 1 hr at 37° C. and 5% CO2 • 6. At the end of the incubation period, spin plates at 300×g for 3 mins and remove supernatant • 7. Then add 50 μl of resazurin (Sigma #R7017) (FAC 100 μM resazurin in RPMI medium without FBS) and incubate plates for a further 1-2 hrs at 37° C. and 5% CO2 • 8. Plates were read in an Envision reader at Ex 560 nm and Em 590 nm • 9. IC50 data is fitted to a non-linear regression equation (log inhibitor vs response-variable slope 4-parameters)

Assay [2] deals with T1, NLRP3. Briefly: Human whole blood IL1β release assay (LPS + nigericin, AlphaLisa IL-1β). Also on record: Human whole blood in Li-heparin tubes was obtained from healthy donors from a volunteer donor panel; from tissue; host or cells: human whole blood from healthy donors. Type of assay: cell-based. The settings on record: NLRP3 inhibitory activity, 1 μg/ml LPS, 10 μM nigericin, IL-1β release, read-out: HWB IC50. On the procedure:
For systemic delivery, the ability to inhibit NLRP3 when the compounds are present within the bloodstream is of great importance. For this reason, the NLRP3 inhibitory activity of a number of compounds in human whole blood was investigated in accordance with the following protocol.
Human whole blood in Li-heparin tubes was obtained from healthy donors from a volunteer donor panel. • 1. Plate out 80 μl of whole blood containing 1 μg/ml of LPS in 96-well, clear bottom cell culture plate (Corning #3585) • 2. Add 10 μl compound (8 points half-log dilution with 10 μM top dose) or vehicle (DMSO 0.1% FAC) to the appropriate wells • 3. Incubate for 3 hrs at 37° C., 5% CO2 • 4. Add 10 μl Nigericin (Sigma #N7143) (10 μM FAC) to all wells • 5. Incubate for 1 hr at 37° C., 5% CO2 • 6. At the end of the incubation period, spin plates at 300×g for 5 mins to pellet cells and remove 20 μl of supernatant and add to 96-well v-bottom plates for IL-1β analysis (note: these plates containing the supernatants can be stored at −80° C. to be analysed at a later date) • 7. IL-1β was measured according to the manufacturer protocol (Perkin Elmer-AlphaLisa IL-1β Kit AL220F-5000) • 8. IC50 data is fitted to a non-linear regression equation (log inhibitor vs response-variable slope 4-parameters)

The text below walks through data of patent US11542255B2, “Sulfonylureas and sulfonylthioureas as NLRP3 inhibitors” (Inflazome Limited, priority 2017, dated 2023).

Structures can show the parent of a compound that is named as a salt. A value given as a limit tells only on which side of the number the result lay.

T1 sequence (Q96P20 whole entry): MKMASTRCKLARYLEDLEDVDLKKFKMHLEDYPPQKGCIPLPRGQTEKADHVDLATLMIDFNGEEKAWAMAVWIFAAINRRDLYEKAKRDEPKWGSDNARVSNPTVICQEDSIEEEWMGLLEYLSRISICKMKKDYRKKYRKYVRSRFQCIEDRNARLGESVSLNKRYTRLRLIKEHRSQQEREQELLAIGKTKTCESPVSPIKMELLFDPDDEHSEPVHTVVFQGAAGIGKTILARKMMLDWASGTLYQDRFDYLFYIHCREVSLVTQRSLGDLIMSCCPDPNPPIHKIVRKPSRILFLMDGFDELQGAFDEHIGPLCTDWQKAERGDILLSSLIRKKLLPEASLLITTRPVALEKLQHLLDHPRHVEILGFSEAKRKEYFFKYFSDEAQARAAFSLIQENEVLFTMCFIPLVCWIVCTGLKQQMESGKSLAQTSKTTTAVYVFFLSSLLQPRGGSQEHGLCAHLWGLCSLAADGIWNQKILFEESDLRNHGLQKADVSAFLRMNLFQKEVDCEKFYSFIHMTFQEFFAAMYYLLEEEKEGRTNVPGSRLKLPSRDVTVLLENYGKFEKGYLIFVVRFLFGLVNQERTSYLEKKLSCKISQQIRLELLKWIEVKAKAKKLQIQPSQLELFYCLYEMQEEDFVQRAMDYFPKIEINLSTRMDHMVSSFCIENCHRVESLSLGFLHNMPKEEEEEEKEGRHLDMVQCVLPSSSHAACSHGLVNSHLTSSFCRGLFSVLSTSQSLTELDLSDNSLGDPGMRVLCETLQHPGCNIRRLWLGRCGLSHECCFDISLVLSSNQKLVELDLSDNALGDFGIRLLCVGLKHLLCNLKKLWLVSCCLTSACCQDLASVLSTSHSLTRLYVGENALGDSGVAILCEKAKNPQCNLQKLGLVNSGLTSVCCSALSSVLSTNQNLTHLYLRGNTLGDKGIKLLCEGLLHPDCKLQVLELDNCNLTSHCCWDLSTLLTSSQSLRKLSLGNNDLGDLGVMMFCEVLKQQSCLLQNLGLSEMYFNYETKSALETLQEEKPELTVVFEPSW

In general, IC50 refers to the concentration that gives 50% inhibition. Consider `CC(C)n1nc(S(=O)(=O)NC(=O)Nc2c3c(cc4c2CCC4)CCC3)cc1C1(N(C)C)CC1` [Example 32, 5-(1-(Dimethylamino)cyclopropyl)-N-((1,2,3,5,6,7-hexahydro-s-indacen-4-yl)carbamoyl)-1-isopropyl-1H-pyrazole-3-sulfonamide], for which the IC50 in assay [1] was in the range of 0.04 to 0.16 µM; in assay [2] it was 0.4 to 0.8 µM.

Regarding `CC(C)n1nc(S(=O)(=O)NC(=O)Nc2c3c(cc4c2CCC4)CCC3)cc1CCN(C)C` [Example 33, 5-(2-(Dimethylamino)ethyl)-N-((1,2,3,5,6,7-hexahydro-s-indacen-4-yl)carbamoyl)-1-isopropyl-1H-pyrazole-3-sulfonamide, Sodium Salt], the IC50 fell in the range of 0.16 to 0.64 µM in assay [1] and 0.4 to 0.8 µM in assay [2].

For the compound `CN(C)C(C)(C)c1cc(S(=O)(=O)NC(=O)Nc2c3c(cc4c2CCC4)CCC3)nn1C` [Example 34, 5-(2-(Dimethylamino)propan-2-yl)-N-((1,2,3,5,6,7-hexahydro-s-indacen-4-yl)carbamoyl)-1-methyl-1H-pyrazole-3-sulfonamide], the IC50 in assay [1] is 0.04 to 0.16 µM; in assay [2] it was 0.4 to 0.8 µM.

Turning to `CCn1nc(S(=O)(=O)NC(=O)Nc2c(-c3ccnc(C#N)c3)cc(F)cc2C(C)C)cc1CN(C)C` [Example 35, N-((2-(2-Cyanopyridin-4-yl)-4-fluoro-6-isopropylphenyl)carbamoyl)-5-((dimethylamino)methyl)-1-ethyl-1H-pyrazole-3-sulfonamide], the IC50 in assay [1] is 0.04 to 0.16 µM; in assay [2], < 0.4 µM.

For the compound `CC(C)c1cc(F)cc(-c2ccnc(C#N)c2)c1NC(=O)NS(=O)(=O)c1cc(CN(C)C)n(C)n1` [Example 36, N-((2-(2-Cyanopyridin-4-yl)-4-fluoro-6-isopropylphenyl)carbamoyl)-5-((dimethylamino)methyl)-1-methyl-1H-pyrazole-3-sulfonamide], the IC50 in assay [1] is 0.04 to 0.16 µM; in assay [2], < 0.4 µM.

For the compound `CN(C)Cc1cc(S(=O)(=O)NC(=O)Nc2c3c(cc4c2CCC4)CCC3)nn1C(C)(C)C` [Example 37, 1-(tert-Butyl)-5-((dimethylamino)methyl)-N-((1,2,3,5,6,7-hexahydro-s-indacen-4-yl)carbamoyl)-1H-pyrazole-3-sulfonamide], the results for the concentration for half-maximal inhibition (IC50) in assay [1] and in assay [2] were < 0.04 µM and 3.2 to 10 µM, respectively.

Take `CC(C)(C)n1nc(S(=O)(=O)NC(=O)Nc2c3c(cc4c2CCC4)CCC3)cc1CN1CCC1` [Example 38, 5-(Azetidin-1-ylmethyl)-1-(tert-butyl)-N-((1,2,3,5,6,7-hexahydro-s-indacen-4-yl)carbamoyl)-1H-pyrazole-3-sulfonamide]: the 50% inhibitory concentration (IC50) in assay [1] lay within 0.04 to 0.16 µM; in assay [2], 1.6 to 3.2 µM.

On to `CC(C)c1cc(F)cc(-c2ccccc2)c1NC(=O)NS(=O)(=O)c1cc(CN(C)C)n(C(C)C)n1` [Example 39, 5-((Dimethylamino)methyl)-N-((5-fluoro-3-isopropyl-[1,1′-biphenyl]-2-yl)carbamoyl)-1-isopropyl-1-H-pyrazole-3-sulfonamide], for which the IC50 in assay [1] fell in the range of 0.64 to 2.56 µM; in assay [2], 1.6 to 3.2 µM.

In the case of `Cc1cc(-c2cc(F)cc(C(C)C)c2NC(=O)NS(=O)(=O)c2cc(CN(C)C)n(C)n2)n(C)n1` [Example 40, N-((2-(1,3-Dimethyl-1H-pyrazol-5-yl)-4-fluoro-6-isopropylphenyl)carbamoyl)-5-((dimethylamino)methyl)-1-methyl-1H-pyrazole-3-sulfonamide], the IC50 lay within 0.16 to 0.64 µM in assay [1] and 0.4 to 0.8 µM in assay [2].

Regarding `CC(C)c1cc(F)cc(-c2cccnc2)c1NC(=O)NS(=O)(=O)c1cc(CN(C)C)n(C)n1` [Example 41, 5-((Dimethylamino)methyl)-N-((4-fluoro-2-isopropyl-6-(pyridin-3-yl)phenyl)carbamoyl)-1-methyl-1H-pyrazole-3-sulfonamide], the IC50 is 0.04 to 0.16 µM in assay [1] and < 0.4 µM in assay [2].

As to `CC(C)c1cc(F)cc(-c2cccc(C#N)c2)c1NC(=O)NS(=O)(=O)c1cc(CN(C)C)n(C(C)C)n1` [Example 45, N-((3′-Cyano-5-fluoro-3-isopropyl-[1,1′-biphenyl]-2-yl)carbamoyl)-5-((dimethylamino)methyl)-1-isopropyl-1H-pyrazole-3-sulfonamide], the IC50 was 0.16 to 0.64 µM in assay [1] and 0.8 to 1.6 µM in assay [2].

`CC(C)c1cc(F)cc(-c2cccc(C#N)c2)c1NC(=O)NS(=O)(=O)c1cc(CN(C)C)n(C)n1` [Example 46, N-((3′-Cyano-5-fluoro-3-isopropyl-[1,1′-biphenyl]-2-yl)carbamoyl)-5-((dimethylamino)methyl)-1-methyl-1H-pyrazole-3-sulfonamide]: the IC50 is 0.04 to 0.16 µM in assay [1] and < 0.4 µM in assay [2].

As for `COc1cc(-c2cc(F)cc(C(C)C)c2NC(=O)NS(=O)(=O)c2cc(CN(C)C)n(C(C)C)n2)ccn1` [Example 47, 5-((Dimethylamino)methyl)-N-((4-fluoro-2-isopropyl-6-(2-methoxypyridin-4-yl)phenyl)carbamoyl)-1-isopropyl-1H-pyrazole-3-sulfonamide], the IC50 in assay [1] is 0.04 to 0.16 µM; in assay [2], < 0.4 µM.

For the compound `COc1cc(-c2cc(F)cc(C(C)C)c2NC(=O)NS(=O)(=O)c2cc(CN(C)C)n(C)n2)ccn1` [Example 48, 5-((Dimethylamino)methyl)-N-((4-fluoro-2-isopropyl-6-(2-methoxypyridin-4-yl)phenyl)carbamoyl)-1-methyl-1H-pyrazole-3-sulfonamide], the IC50 in assay [1] is < 0.04 µM; in assay [2] it was < 0.4 µM.

`CCn1nc(S(=O)(=O)NC(=O)Nc2c(C(C)C)cc(F)cc2C(C)C)cc1CN(C)C` [Example 51, 5-((Dimethylamino)methyl)-1-ethyl-N-((4-fluoro-2,6-diisopropylphenyl)carbamoyl)-1H-pyrazole-3-sulfonamide]: the IC50 is 0.16 to 0.64 µM in assay [1] and < 0.4 µM in assay [2].

Take `CC(C)n1nc(S(=O)(=O)NC(=O)Nc2c3c(cc4c2CCC4)CCC3)cc1CN1CCC1` [Example 53, 5-(Azetidin-1-ylmethyl)-N-((1,2,3,5,6,7-hexahydro-s-indacen-4-yl)carbamoyl)-1-isopropyl-1H-pyrazole-3-sulfonamide]: the IC50 is < 0.04 µM in assay [1] and 0.4 to 0.8 µM in assay [2].

For the compound `CC(C)c1cc(F)cc(-c2cccnc2)c1NC(=O)NS(=O)(=O)c1cc(CN(C)C)n(C(C)C)n1` [Example 54, 5-((Dimethylamino)methyl)-N-((4-fluoro-2-isopropyl-6-(pyridin-3-yl)phenyl)carbamoyl)-1-isopropyl-1H-pyrazole-3-sulfonamide], the IC50 in assay [1] lay in the range of 0.16 to 0.64 µM; in assay [2] it was 0.4 to 0.8 µM.

In the case of `CC(C)c1cc(Cl)cc(C(C)C)c1NC(=O)NS(=O)(=O)c1cc(CN(C)C)n(C(C)C)n1` [Example 55, N-((4-Chloro-2,6-diisopropylphenyl)carbamoyl)-5-((dimethylamino)methyl)-1-isopropyl-1H-pyrazole-3-sulfonamide], the IC50 in assay [1] lay in the range of 0.04 to 0.16 µM; in assay [2] it was 1.6 to 3.2 µM.

As for `CC(C)n1nc(S(=O)(=O)NC(=O)Nc2c3c(cc4c2CCC4)CCC3)cc1CN(C)CC(F)F` [Example 56, 5-(((2,2-Difluoroethyl)(methyl)amino)methyl)-N-((1,2,3,5,6,7-hexahydro-s-indacen-4-yl)carbamoyl)-1-isopropyl-1H-pyrazole-3-sulfonamide, Sodium Salt], the results for the IC50 in assay [1] and in assay [2] were 0.04 to 0.16 µM and 3.2 to 10 µM, respectively.
